Measurements published in paper PMC5349880, “P-glycoprotein-mediated chemoresistance is reversed by carbonic anhydrase XII inhibitors” (Oncotarget, 2016).
Values belong to the compound of their own block, whether it stands above or below them.

Tests used:
[1] = tested on: Pgp; assay: Pgp ATPase activity on Pgp-rich vesicles; assay type: cell-based; conditions: cells grown 24 h with 5 nM compound
Description: Pancadherin level was used as control of equal protein loading. no Ab: A549/DX sample immunoprecipitated without antibody. […] Data are presented as means ± SD (n = 3).
The assay was performed on Pgp-enriched membrane vesicles as detailed in [39]. Verapamil (10 μM) was added to the reaction mix to achieve a maximal activation of the Pgp ATPase activity. Results were expressed as nmol hydrolyzed phosphate (Pi)/min/mg proteins, according to the titration curve previously prepared.

[2] = Liver microsome metabolic stability (mouse); assay type: in vitro ADME; conditions: mouse liver microsomes; read-out: mouse liver microsome stability t1/2
Description: (§1) Plasma stability (mouse) and liver microsome metabolic stability (mouse) were measured by the Biopharmacy Laboratory, Shanghai Institute of Materia Medica, Chinese Academy of Sciences.

[3] = tested on: HT29/DX cells; assay: Cell viability (neutral red); assay type: cell-based, human
[4] = tested on: SaOS/DX cells; assay: Cell viability (neutral red); assay type: cell-based, human
[5] = tested on: ca12 KO HT29/DX, A549/DX, MDA-MB-231 and U2OS/DX cells; assay: Intracellular doxorubicin accumulation in ca12 knocked-out cells; assay type: cell-based, human
Description: Data are presented as means ± SD (n = 4). […] The absorbance of viable cells was measured spectrophotometrically. Data are presented as means ± SD (n = 4).
Doxorubicin content was measured fluorimetrically as detailed previously by us. […] Cells were washed twice with PBS, detached with trypsin and sonicated. The intracellular drug content was measured by liquid scintillation. The results were expressed as nmol drug/mg cell proteins, according to titration curves previously set.
5 × 10^5 cells were transduced with 1 μg RNA vector (CRISPR pCas guide vector) ca12 or 1 μg not-targeting vector, mixed with 1 μg donor DNA vector (Origene, Rockville, MD), following the manufacturer's instructions. Stable KO cells were selected in complete medium containing 1 μg/ml puromycin for three weeks. Knockout efficacy was evaluated by immunoblotting, as reported above.

[6] = tested on: U2OS/DX cells; assay: Cell viability (neutral red); assay type: cell-based, human
[7] = tested on: A549 cells; assay: Cell viability (neutral red); assay type: cell-based, human
[8] = tested on: MDA-MB-231 cells; assay: Cell viability (neutral red); assay type: cell-based, human
[9] = tested on: JC cells; assay: Cell viability (neutral red); assay type: cell-based, murine
[10] = Hematochemical parameters of tumor-bearing animals
[11] = tested on: CCD-Co-18 cells, BEAS-2B cells, MCF10A cells, fibroblasts; assay: Cell viability (neutral red) of not-transformed cells; assay type: cell-based, human; conditions: 5 nM, 72 h; no detectable CAXII
Source text: Supplementary Figure S4: Effects of compounds 1, 2 and 4 on not-transformed cells. (A) Not-transformed human epithelial colon CCD-Co-18 cells, epithelial lung BEAS-2B cells, epithelial breast MCF10A cells, fibroblasts (fibro) were lysed and immunoblotted for CAXII and CAIX. A549/DX cells were used as control of CAXII- and CAIX-positive cells. β-tubulin level was used as control of equal protein loading. The figure is representative of one out of three experiments with similar results. (B) Cells were grown for 72 h in fresh medium (–), or in medium containing 5 nM compounds 1, 2 and 4, then stained with neutral red dye. The absorbance of viable cells was measured spectrophotometrically. Data are presented as means ± SD (n = 4).

[12] = tested on: A549/DX cells; assay: Cell viability (neutral red); assay type: cell-based, human
[13] = Plasma stability (mouse); assay type: in vitro ADME; conditions: read-out: mouse plasma stability t1/2 (converted)
Description: as §1

[14] = tested on: TUBO cells; assay: Cell viability (neutral red); assay type: cell-based, murine
[15] = tested on: JC cells; assay: In vivo tumor growth, JC breast tumor model; conditions: for reduction in tumor volume at day 18: co-administered with 5 mg/kg doxorubicin i.v.
Description: Data are presented as means ± SD.
Tumor growth was measured daily by caliper and calculated according to the equation (L × W^2)/2, where L = tumor length, W = tumor width.

[16] = tested on: T74D cells; assay: Cell viability (neutral red); assay type: cell-based, human
[17] = tested on: U2OS cells; assay: Cell viability (neutral red); assay type: cell-based, human; conditions: doxorubicin alone 72 h, IC50 ratio vs doxorubicin + tariquidar 25 nM
[18] = tested on: MCF7 cells; assay: Cell viability (neutral red); assay type: cell-based, human; conditions: doxorubicin alone 72 h, IC50 ratio vs doxorubicin + tariquidar 25 nM
[19] = tested on: SKBR3 cells; assay: Cell viability (neutral red); assay type: cell-based, human; conditions: doxorubicin alone 72 h, IC50 ratio vs doxorubicin + tariquidar 25 nM
[20] = tested on: HT29 cells; assay: Cell viability (neutral red); assay type: cell-based, human; conditions: doxorubicin alone 72 h, IC50 ratio vs doxorubicin + tariquidar 25 nM
[21] = tested on: SaOS cells; assay: Cell viability (neutral red); assay type: cell-based, human; conditions: doxorubicin alone 72 h, IC50 ratio vs doxorubicin + tariquidar 25 nM
[22] = C1 19 ng/kg intratumorally alone
[23] = C1 1900 ng/kg intratumorally alone
[24] = dox 5 mg/kg i.v. + C1 19 ng/kg intratumorally
[25] = dox 5 mg/kg i.v. + C1 1900 ng/kg intratumorally

half-life [2]: 2.25 h
AP [10, 22]: 91 ± 13 U/l
CPK [10, 22]: 271 ± 84 U/l
Creatinine [10, 22]: 0.021 ± 0.011 mg/L
LDH [10, 22]: 6723 ± 1023 U/l
AP [10, 23]: 83 ± 11 U/l
CPK [10, 23]: 312 ± 81 U/l
Creatinine [10, 23]: 0.033 ± 0.008 mg/L
LDH [10, 23]: 6729 ± 835 U/l
AP [10, 24]: 79 ± 11 U/l
CPK [10, 24]: 701 ± 129 U/l
Creatinine [10, 24]: 0.029 ± 0.011 mg/L
LDH [10, 24]: 6091 ± 836 U/l
AP [10, 25]: 83 ± 19 U/l
CPK [10, 25]: 691 ± 103 U/l
Creatinine [10, 25]: 0.028 ± 0.008 mg/L
LDH [10, 25]: 6241 ± 936 U/l
half-life [13]: 0.7 h
Structure (SMILES): NS(=O)(=O)OCCCNS(=O)(=O)[C@@H]1O[C@H](CO)[C@@H](O)[C@H](O)[C@H]1O [Compound 1]
reduction of Pgp ATPase activity [1]: ≥ 1.47 fold
reduction in viability for individual compounds ([3]; HT29/DX cells, compound alone, 5 nM): ≤ 31 ± 6%
reduction in viability for individual compounds ([4]; SaOS/DX cells, compound alone, 5 nM): ≤ 32 ± 7%
effect on doxorubicin intracellular accumulation [5]: lost the ability to further increase the doxorubicin intracellular accumulation
reduction in viability for individual compounds ([6]; U2OS/DX cells, compound alone, 5 nM): ≤ 27 ± 8%
reduction in viability for individual compounds ([7]; A549 cells, compound alone, 5 nM): ≤ 28 ± 10%
reduction in viability for individual compounds ([8]; MDA-MB-231 cells, compound alone, 5 nM): ≤ 36 ± 11%
reduction in viability for individual compounds ([9]; JC cells, compound alone, 5 nM): ≤ 30 ± 10%
ALT [10, 22]: 38 ± 12 U/l
AST [10, 22]: 239 ± 72 U/l
ALT [10, 23]: 45 ± 7 U/l
AST [10, 23]: 261 ± 71 U/l
ALT [10, 24]: 44 ±11 U/l
AST [10, 24]: 221 ± 71 U/l
ALT [10, 25]: 33 ± 15 U/l
AST [10, 25]: 182 ± 44 U/l
cytotoxic effect in not-transformed cells [11]: did not exert any cytotoxic effect
reduction in viability for individual compounds ([12]; A549/DX cells, compound alone, 5 nM): ≤ 38 ± 7%
reduction in viability for individual compounds ([14]; TUBO cells, compound alone, 5 nM): ≤ 28 ± 7%
reduction in tumor volume at day 18 ([15]; 19 ng/kg intratumorally): 21%
reduction in tumor volume at day 18 ([15]; 1900 ng/kg intratumorally): 47%
effect on tumor growth when used alone ([15]; 19 and 1900 ng/kg intratumorally, alone): no effect on tumor growth
reduction in viability for individual compounds ([16]; T74D cells, compound alone, 5 nM): ≤ 33 ± 12%

CPK ([10]; doxorubicin 5 mg/kg i.v. alone): 673 ± 172 U/l
Creatinine ([10]; doxorubicin 5 mg/kg i.v. alone): 0.029 ± 0.017 mg/L
LDH ([10]; doxorubicin 5 mg/kg i.v. alone): 6272 ± 812 U/l
Structure (SMILES): COc1cccc2c1C(=O)c1c(O)c3c(c(O)c1C2=O)C[C@@](O)(C(=O)CO)C[C@@H]3O[C@H]1C[C@H](N)[C@H](O)[C@H](C)O1 [dox, doxorubicin, reference compound]
Rf dox ([3]; HT29/DX, doxorubicin alone 72 h, IC50 ratio vs doxorubicin + tariquidar 25 nM): 4.26
Rf dox ([4]; SaOS/DX, doxorubicin alone 72 h, IC50 ratio vs doxorubicin + tariquidar 25 nM): 14.97
Rf dox [17]: 1.05
Rf dox [18]: 1.32
Rf dox [19]: 2.19
Rf dox ([6]; U2OS/DX, doxorubicin alone 72 h, IC50 ratio vs doxorubicin + tariquidar 25 nM): 15.44
Rf dox ([7]; A549, doxorubicin alone 72 h, IC50 ratio vs doxorubicin + tariquidar 25 nM): 1.31
Rf dox ([8]; MDA-MB-231, doxorubicin alone 72 h, IC50 ratio vs doxorubicin + tariquidar 25 nM): 4.55
Rf dox [20]: 1.39
Rf dox ([9]; JC, doxorubicin alone 72 h, IC50 ratio vs doxorubicin + tariquidar 25 nM): 7.61
ALT ([10]; doxorubicin 5 mg/kg i.v. alone): 37 ± 16 U/l
AST ([10]; doxorubicin 5 mg/kg i.v. alone): 288 ± 72 U/l
Rf dox [21]: 1.43
Rf dox ([12]; A549/DX, doxorubicin alone 72 h, IC50 ratio vs doxorubicin + tariquidar 25 nM): 4.45
Rf dox ([14]; TUBO, doxorubicin alone 72 h, IC50 ratio vs doxorubicin + tariquidar 25 nM): 4.23
Rf dox ([16]; T74D, doxorubicin alone 72 h, IC50 ratio vs doxorubicin + tariquidar 25 nM): 0.98
